Test results published in article PMC5147891 (PLoS ONE, 2016).
Read-outs that look alike come from different tables or passages of the source. Marks after values point to notes of the source that are not given here.

Legend:
[1] = chronic administration, cited from earlier work
hCB1 receptors [2] = target: T1, hCB1 receptors (Homo sapiens, UniProt P21554); assay: Forskolin-stimulated intracellular [3H]cAMP in intact CHO-hCB1 cells; type: cell-based; conditions: concentration-effect curves
Method: CHO-hCB1, CHO-hCB2, or CHO-hMOR cells were plated separately in normal culture media into 24-well plates at a density of 6 × 10^6 cells/plate and incubated overnight at 37°C in 5% CO2. As previously described, the following day culture media was removed from each well and replaced with 500 μl pre-incubation mixture containing either HAM’s F-12 K (CHO-hCB1) or DMEM (CHO-hCB2 and CHO-hMOR) with 0.9% NaCl, 500 μM 3-isobutyl-1-methylxathine (IBMX) and 2 μCi/well [^3H]adenine. Cells were incubated for 3–5 hr at 37°C. The pre-incubation mix was removed and indicated concentrations of drugs were added to the individual wells for 15 min at 37°C in a Krebs-Ringer-HEPES solution (10 mM HEPES, 110mM NaCl, 25mM Glucose, 55mM Sucrose, 5mM KCl, 1mM MgCl2, 1.8 mM CaCl2, pH 7.4) containing IBMX, and 10 μM forskolin. […] Radioactivity contained in 4 ml of the final column eluate was counted by a Packard-Tri-carb 2100/TR liquid scintillation counter after adding 10 ml of liquid scintillation cocktail.
(§1) Data presented are expressed as mean ± standard error of the mean (S.E.M.) for a minimum of three experiments, each performed in triplicate. […] To compare three or more groups, statistical significance of the data was determined by a one-way ANOVA, followed by post hoc comparisons using a Tukey's or Dunnett's test. […]

hCB1 receptors [3] = target: T1, hCB1 receptors; assay: [35S]GTPγS binding (G-protein activity), CHO-hCB1 membranes; type: biochemical; conditions: 10 μM
Method: (§2) CHO-hCB1, CHO-hCB2 and CHO-hMOR cells were homogenized individually with 10 complete strokes utilizing a 7ml Dounce glass homogenizer in an ice-cold buffer containing 50 mM HEPES pH 7.4, 3 mM MgCl2, and 1 mM EDTA as described previously. The homogenized samples were then centrifuged at 40,000 × g for 10 min at 4°C. Supernatants were discarded; the pellets re-suspended in the buffer, homogenized again, and centrifuged similarly twice more. After the final centrifugation step, supernatants were discarded and pellets were re-suspended in ice-cold 50 mM HEPES, pH 7.4 to achieve an approximate protein concentration of 10 mg/ml. Membrane homogenates were divided into aliquots and stored at −80°C for future use. A small aliquot of each membrane preparation was removed prior to freezing and the protein concentration was determined using BCA Protein Assay (Thermo Fisher Scientific, Waltham, MA).
(§3) The GTPγS binding assay to measure G-protein activation was performed as previously described. Briefly, in a total volume of 1 ml, 25 μg of CHO-hCB2, 50 μg of CHO-hCB1-Rx or 50 μg of CHO-hMOR membranes homogenates were added to each reaction mixture containing 0.1 nM [^35S]GTPγS, 20 mM HEPES, 10 mM MgCl2, 100 mM NaCl, 10 μM GDP, 0.1% bovine serum albumin and the indicated concentrations of ligand to be examined. After mixing, reaction mixtures were incubated at 30°C for 30 min. […] Nonspecific binding was defined by the amount of radioactivity remaining in the presence of 10 μM non-radiolabeled GTPγS. Reactions were terminated by rapid vacuum filtration through glass fiber filters followed by four washes with ice cold 50 mM HEPES (pH 7.4) containing 0.1% bovine serum albumin. Four ml of scintiverse scintillation fluid (Fisher Scientific, Waltham, MA) was added to the filters and the amount of radioactivity was quantified 24 hr later utilizing liquid scintillation spectrophotometry.
Data presented are expressed as mean ± standard error of the mean (S.E.M.) for a minimum of three experiments, each performed in triplicate. GraphPad Prism version 6.0f (GraphPad Software Inc.) was used for all curve-fitting and statistical analyses. Non-linear regression for one-site competition was used to determine the IC50 for competition receptor binding. IC50 values were subsequently converted to Ki values (a measure of receptor affinity) by the Cheng-Prusoff equation [31]. Non-linear regression was also used to analyze concentration-effect curves to determine the EC50 or IC50 (measures of potency) and Emax or Imax (measures of efficacy) for GTPγS binding and adenylyl cyclase experiments, respectively. […] To compare three or more groups, statistical significance of the data was determined by a one-way ANOVA, followed by post hoc comparisons using a Tukey's or Dunnett's test. […]

hCB1 receptors [4] = target: T1, hCB1 receptors; assay: Antagonism of CP-55,940 inhibition of AC activity in intact CHO-hCB1 cells; type: cell-based; conditions: CHO-hCB1 cells
Method: (§4) After overnight seeding into 24-well plates and pre-incubation of cells with [^3H]adenine for 3–5 hr at 37°C as described above, media was removed and the indicated concentration of the SERM to be tested was added to all wells of the 24-well plate. […] Reactions were terminated and [^3H]cAMP isolated as described above.
(§5) Data presented are expressed as mean ± standard error of the mean (S.E.M.) for a minimum of three experiments, each performed in triplicate. GraphPad Prism version 6.0f (GraphPad Software Inc.) was used for all curve-fitting and statistical analyses. Non-linear regression for one-site competition was used to determine the IC50 for competition receptor binding. IC50 values were subsequently converted to Ki values (a measure of receptor affinity) by the Cheng-Prusoff equation [31]. Non-linear regression was also used to analyze concentration-effect curves to determine the EC50 or IC50 (measures of potency) and Emax or Imax (measures of efficacy) for GTPγS binding and adenylyl cyclase experiments, respectively. All dissociation constants and measurements of potency were converted to pKi, pKB, pEC50, or pIC50 values by taking the negative log of each value so that parametric tests could be used for statistical comparisons. To compare three or more groups, statistical significance of the data was determined by a one-way ANOVA, followed by post hoc comparisons using a Tukey's or Dunnett's test. To compare two groups, the non-paired Student's t-test was used.

hCB2 receptors [5] = target: T2, hCB2 receptors (Homo sapiens, UniProt P34972); assay: Forskolin-stimulated intracellular [3H]cAMP in intact CHO-hCB2 cells; type: cell-based; conditions: for EMAX, intracellular [3H]cAMP: forskolin-stimulated cAMP; for EMAX, intracellular [3H]cAMP / EC50: values only approximate
T2 construct: expressed in transfected cells
Method: CHO-hCB1, CHO-hCB2, or CHO-hMOR cells were plated separately in normal culture media into 24-well plates at a density of 6 × 10^6 cells/plate and incubated overnight at 37°C in 5% CO2. As previously described, the following day culture media was removed from each well and replaced with 500 μl pre-incubation mixture containing either HAM’s F-12 K (CHO-hCB1) or DMEM (CHO-hCB2 and CHO-hMOR) with 0.9% NaCl, 500 μM 3-isobutyl-1-methylxathine (IBMX) and 2 μCi/well [^3H]adenine. Cells were incubated for 3–5 hr at 37°C. The pre-incubation mix was removed and indicated concentrations of drugs were added to the individual wells for 15 min at 37°C in a Krebs-Ringer-HEPES solution (10 mM HEPES, 110mM NaCl, 25mM Glucose, 55mM Sucrose, 5mM KCl, 1mM MgCl2, 1.8 mM CaCl2, pH 7.4) containing IBMX, and 10 μM forskolin. Reactions were terminated by adding 50 μl 2.2N HCl and [^3H]cAMP was isolated by employing alumina column chromatography. Radioactivity contained in 4 ml of the final column eluate was counted by a Packard-Tri-carb 2100/TR liquid scintillation counter after adding 10 ml of liquid scintillation cocktail.
To determine if modulation of adenylyl cyclase activity by SERMs was mediated through CB2 receptors coupling to Gi/o proteins, additional cAMP assays were conducted following overnight treatment with pertussis toxin as described elsewhere. Briefly, CHO-hCB2 cells were seeded into 24-well plates as described above in normal culture media containing 100 ng/ml of pertussis toxin and incubated overnight at 37°C. Pertussis toxin-treated media was removed and measurement of intracellular [^3H]cAMP levels following indicated SERM treatments was conducted as described above.
as §5

hCB2 receptors [6] = target: T2, hCB2 receptors; assay: Antagonism of CP-55,940 inhibition of AC activity in intact CHO-hCB2 cells; type: cell-based
Method: as §4, §5

hCB2 receptors [7] = target: T2, hCB2 receptors; assay: [35S]GTPγS binding (G-protein activity), CHO-hCB2 membranes; type: biochemical; conditions: 10 μM
Method: as §2
as §3, with “Reactions were terminated by rapid vacuum filtration through glass fiber filters followed by four washes with ice cold 50 mM HEPES (pH 7.4) containing 0.1% bovine serum albumin.” left out
as §1

hCB2 receptors [8] = target: T2, hCB2 receptors; assay: Competition receptor binding with [3H]CP-55,940, CHO-hCB2 membranes; conditions: [3H]CP-55,940 binding, CHO-hCB2, 0.2 nM [3H]CP-55,940, CHO-hCB2 membranes
Method: as §2
(§6) Competition receptor binding was performed as reported earlier. […] The total volume of the incubation mixture was 1 ml. All reactions were mixed and allowed to reach equilibrium binding by incubation at room temperature for 90 min. […] Binding was terminated by rapid vacuum filtration through glass fiber filters (Brandel, Gaithersburg, MD), followed by four 5 ml washes of ice-cold 50 mM Tris-HCl (pH 7.4) buffer containing 0.1% bovine serum albumin. Four ml of scintiverse scintillation fluid (Fisher Scientific, Waltham, MA) was added to the filters and the amount of radioactivity was quantified 24 hr later utilizing liquid scintillation spectrophotometry.
as §5

hCB1 receptors [9] = target: T1, hCB1 receptors; assay: Competition receptor binding with [3H]CP-55,940, CHO-hCB1 membranes
Method: as §2, §6, §5

[10] = increase of forskolin-stimulated cAMP

T1 sequence (P21554 whole entry): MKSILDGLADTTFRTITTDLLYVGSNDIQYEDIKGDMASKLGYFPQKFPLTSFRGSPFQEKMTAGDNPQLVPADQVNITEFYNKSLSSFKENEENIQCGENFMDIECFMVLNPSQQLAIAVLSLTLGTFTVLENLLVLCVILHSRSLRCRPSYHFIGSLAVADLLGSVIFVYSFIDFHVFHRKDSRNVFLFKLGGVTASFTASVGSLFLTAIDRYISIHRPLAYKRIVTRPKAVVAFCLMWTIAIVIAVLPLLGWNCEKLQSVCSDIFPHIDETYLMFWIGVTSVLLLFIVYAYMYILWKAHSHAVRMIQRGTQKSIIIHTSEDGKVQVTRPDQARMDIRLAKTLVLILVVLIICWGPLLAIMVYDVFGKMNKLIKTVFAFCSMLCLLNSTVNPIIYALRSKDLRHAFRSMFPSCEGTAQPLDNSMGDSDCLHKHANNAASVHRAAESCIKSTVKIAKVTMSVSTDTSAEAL
T2 sequence (P34972 whole entry): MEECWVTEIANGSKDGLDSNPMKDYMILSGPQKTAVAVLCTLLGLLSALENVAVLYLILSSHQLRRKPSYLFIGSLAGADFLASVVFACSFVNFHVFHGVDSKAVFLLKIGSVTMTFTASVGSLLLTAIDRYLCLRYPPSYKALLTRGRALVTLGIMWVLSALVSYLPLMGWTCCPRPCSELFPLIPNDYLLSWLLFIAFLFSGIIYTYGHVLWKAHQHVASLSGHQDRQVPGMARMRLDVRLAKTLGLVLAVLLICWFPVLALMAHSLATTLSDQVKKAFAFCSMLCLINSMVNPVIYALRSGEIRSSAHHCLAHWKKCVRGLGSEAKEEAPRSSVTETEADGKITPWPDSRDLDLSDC

With `CC/C(=C(\c1ccc(O)cc1)c1ccc(OCCN(C)C)cc1)c1ccccc1` [4OHT, 4-hydroxytamoxifen] as the molecule, how does the “Concentration reached in serum” value ([1]; ref [40]) read?
The value was “high nanomolar concentrations”.

And the “Levels accumulated in brain and breast tissue” value ([1]; ref [65], [66])?
The value was “micromolar range”.

What does the source list for `Cc1c(C(=O)NN2CCOCC2)nn(-c2ccc(Cl)cc2Cl)c1-c1ccc(I)cc1` [AM-281]?
Effect on basal cAMP levels (hCB1 receptors [2]): did not alter cAMP levels; Effect on basal [35S]GTPγS binding (hCB1 receptors [3]): decreased; IMAX, inhibition of basal [35S]GTPγS binding (hCB1 receptors [3]): 33. ± 3.2%; Type of antagonism of CP-55,940 (hCB1 receptors [4]): surmountable antagonism; pKb (hCB1 receptors [4]; against CP-55,940, AM-281 1 μM, Z-4OHT 10 μM, Z-End 30 μM): 6.81 ± 0.061; Kb (hCB1 receptors [4]; against CP-55,940, AM-281 1 μM, Z-4OHT 10 μM, Z-End 30 μM, read-out: Kb (antagonist dissociation constant)): 155 nM; Shift (decrease) in potency (IC50) of CP-55,940 (hCB1 receptors [4]; AM-281 1 μM, Z-Tam 30 μM): greater than 8 fold; IMAX of CP-55,940, intracellular [3H]cAMP (hCB1 receptors [4]; CP-55,940 alone or after pre-incubation with AM-281 1 μM, Z-Tam 30 μM, Z-4OHT 10 μM, Z-End 30 μM): 35.7 ± 0.9^a %

With `COc1ccc(C(=O)c2c(C)n(CCN3CCOCC3)c3cc(I)ccc23)cc1` [AM-630] as the molecule, how does the “EMAX, intracellular [3H]cAMP” value (hCB2 receptors [5]) read?
Its value is 214 ± 6.5%.

And the “pEC50, intracellular [3H]cAMP” value (hCB2 receptors [5]; increase of forskolin-stimulated cAMP, mean ± SEM)?
Its value is 6.40 ± 0.096.

And the EC50 (hCB2 receptors [5]; [10])?
The EC50 was 398 nM.

And the “Type of antagonism of CP-55,940” value (hCB2 receptors [6])?
Its value is “parallel rightward-shift”.

And the “IMAX of CP-55,940, intracellular [3H]cAMP” value (hCB2 receptors [6]; CP-55,940 alone or after pre-incubation with AM-630 1 μM, Z-Tam 10 μM, Z-4OHT 10 μM, Z-End 30 μM)?
The value was 31.7 ± 0.3^a %.

What about the pKb (hCB2 receptors [6]; against CP-55,940, AM-630 1 μM, Z-Tam 10 μM, Z-4OHT 10 μM) of the same molecule?
Its pKb is 7.26 ± 0.064.

And the Kb (hCB2 receptors [6]; against CP-55,940, AM-630 1 μM, Z-Tam 10 μM, Z-4OHT 10 μM, listed as +AM-630, read-out: Kb (antagonist dissociation constant))?
Its Kb is 55 nM.

What about the Kb (hCB2 receptors [6]; against CP-55,940, AM-630 1 μM, Z-Tam 10 μM, Z-4OHT 10 μM, read-out: Kb (antagonist dissociation constant)) of the same molecule?
Its Kb is 55.4 nM.

What about the “IMAX, decrease in basal G-protein activity ([35S]GTPγS binding)” value (hCB2 receptors [7]) of the same molecule?
The value was 28.7%.

Which results are given for `CC/C(=C(\c1ccc(O)cc1)c1ccc(OCCN(C)C)cc1)c1ccccc1` [E-4OHT, 4-hydroxytamoxifen]?
EMAX, intracellular [3H]cAMP (hCB2 receptors [5]): 352 ± 52^a^,^b %; EC50 (hCB2 receptors [5]; [10]): 9120 nM; Ki (hCB2 receptors [8]): 957 nM; Effect on basal [35S]GTPγS binding (hCB1 receptors [3]): did not significantly alter; Ki (hCB1 receptors [9]; Ki, [3H]CP-55,940 binding, CHO-hCB1, 0.2 nM [3H]CP-55,940, CHO-hCB1 membranes): 1240 nM; Selectivity (CB1/CB2) (hCB1 receptors [9]; ratio hCB1-Ki/hCB2-Ki): 1.30
